The source made the active and inactive calls. The rule behind the calls is not given here.
Tests used:
3T3-L1 = test: Antiobesity activity in mouse 3T3L1 cells assessed as reduction of fat accumulation at 100 uM by oil Red O staining-based ELISA; assay type: functional, cell-based
[1] = molecular target: T1, Pancreatic triacylglycerol lipase (Sus scrofa) (UniProt P00591); test: Inhibition of porcine pancreatic lipase using para-nitrophenyl butyrate as substrate at 100 uM by ELISA
T1 sequence (whole entry): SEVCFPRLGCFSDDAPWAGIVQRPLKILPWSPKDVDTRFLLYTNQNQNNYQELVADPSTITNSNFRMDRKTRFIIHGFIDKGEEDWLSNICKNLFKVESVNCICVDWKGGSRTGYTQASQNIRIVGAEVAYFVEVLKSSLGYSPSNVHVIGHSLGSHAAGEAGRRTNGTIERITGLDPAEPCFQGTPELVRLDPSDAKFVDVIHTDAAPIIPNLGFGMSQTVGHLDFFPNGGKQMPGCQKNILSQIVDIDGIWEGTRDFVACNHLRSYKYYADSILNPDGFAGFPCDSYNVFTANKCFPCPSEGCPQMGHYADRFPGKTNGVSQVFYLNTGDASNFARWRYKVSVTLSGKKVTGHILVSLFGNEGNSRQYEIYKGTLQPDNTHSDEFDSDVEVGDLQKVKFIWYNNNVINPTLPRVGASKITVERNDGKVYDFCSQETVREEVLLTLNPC

| Compound | Activity (3T3-L1) | Lipase inhibition (active/not active) [1] |
| --- | --- | --- |
| CC(=O)/C=C/[C@]1(O)[C@@H](C)C[C@@H](O)CC1(C)C | inactive | inactive |
| COc1cc(/C=C\C(=O)NCCc2ccc(O)cc2)ccc1O | inactive | Active |
| CC(=O)/C=C/[C@@]12O[C@]1(C)C[C@@H](O[C@@H]1O[C@H](CO)[C@@H](O)[C@H](O)[C@H]1O)CC2(C)C | inactive | inactive |
| COc1cc(-c2oc3cc(O[C@@H]4O[C@H](CO)[C@@H](O)[C@H](O)[C@H]4O)cc(O)c3c(=O)c2O)ccc1O | Active | inactive |
| O=C1c2ccccc2-c2c3c(cc4ccnc1c24)OCO3 | Active | Active |
| O=C1c2c(O)cc(O)cc2O[C@@H](c2ccc(O)c(O)c2)[C@H]1O | Active | Active |
| O=c1c(O[C@@H]2O[C@H](CO)[C@@H](O)[C@H](O)[C@H]2O)c(-c2ccc(O)c(O)c2)oc2cc(O)cc(O)c12 | Active | inactive |
| CC(=O)/C=C/[C@@]12O[C@]1(C)C[C@@H](O)CC2(C)C | Active | inactive |
| O=c1c(O)c(-c2ccc(O)cc2)oc2cc(O)cc(O)c12 | Active | Active |
| COc1cc2c3c(c1OC)C1(C=CC(=O)C=C1)C[C@H]3N(C)CC2 |  | Active |
| COc1cc(/C=C/C(=O)NCCc2ccc(O)cc2)ccc1O | inactive | Active |
| O=C1CC[C@@H]2c3cc(O)c(O)cc3CCN12 |  | Active |
| CC(=O)/C=C/[C@H]1[C@H](C)C[C@H](O)CC1(C)C | inactive | inactive |
| O=c1c(O)c(-c2ccc(O)c(O)c2)oc2cc(O)cc(O)c12 | Active | Active |
| CC(=O)/C=C\[C@@H]1[C@@H](C)C[C@@H](O[C@@H]2O[C@H](CO)[C@@H](O)[C@H](O)[C@H]2O)CC1(C)C | inactive | inactive |
| O=C(/C=C/c1ccc(O)cc1)NCCc1ccc(O)cc1 | inactive | Active |

| Compound | Activity (3T3-L1) | Lipase inhibition (active/not active) [1] |
| --- | --- | --- |
| CC1=CC(=O)CC(C)(C)/C1=C/C[C@H](C)O | inactive | inactive |
| CC(=O)/C=C/[C@@]1(O)C(C)=CC(=O)CC1(C)C | inactive | inactive |
| Oc1cc(O)c2c(c1)O[C@@H](c1ccc(O)c(O)c1)[C@H](O)C2 |  | Active |
| CC1=C2C[C@@H](C(C)(C)O[C@@H]3O[C@H](CO)[C@@H](O)[C@H](O)[C@H]3O)CC[C@@]2(C)CCC1=O | inactive | inactive |
| CC(=O)/C=C/[C@H]1C(C)=C[C@H](O[C@@H]2O[C@H](CO)[C@@H](O)[C@H](O)[C@H]2O)CC1(C)C | inactive | inactive |
| CC1=CC(=O)CC(C)(C)[C@@]1(O)/C=C/[C@@H](C)O | inactive | inactive |
| CC(=O)C=C=C1C(C)(C)C[C@H](O)C[C@]1(C)O | inactive | inactive |
| O=C(/C=C\c1ccc(O)cc1)NCCc1ccc(O)cc1 | inactive | Active |
| O=C1c2c(O)cc(O)cc2O[C@H](c2ccc(O)c(O)c2)[C@H]1O |  | Active |
| O=c1c(O[C@@H]2O[C@H](CO)[C@@H](O)[C@H](O)[C@H]2O)c(-c2ccc(O)cc2)oc2cc(O)cc(O)c12 | Active | inactive |
| CC(=O)/C=C/[C@]12O[C@@]1(C)C[C@@H](O)CC2(C)C | Active | inactive |
| Oc1ccc([C@H]2Oc3c(O)c(O)c(O)c(O)c3C[C@@H]2O)cc1O |  | Active |
| O=c1cc(-c2ccc(O)c(O)c2)oc2cc(O)cc(O)c12 | Active | Active |
| C[N+]1([O-])CCc2cc3c(c4c2[C@H]1Cc1ccccc1-4)OCO3 (some centres undefined) | Active | Active |
| CC1(C)C[C@@H](O)C[C@@]2(C)OC(=O)C=C12 | inactive | inactive |
| CC(=O)C=C=C1C(C)(C)C[C@H](O)C[C@@]1(C)O | inactive | inactive |

Reference: ChEMBL document CHEMBL2390860, “Chemical constituents from Nelumbo nucifera leaves and their anti-obesity effects” (Bioorg Med Chem Lett, 2013)
